# Reference: patent US10662203B2, “Pyrido[2,3-b]indole compounds for the treatment and prophylaxis of bacterial infection” (Hoffmann-La Roche Inc., priority 2017, dated 2020)
# Key:
# [1] = system: A. baumannii (ATCC17978); experiment: 50% growth inhibitory concentration (IC50) determination assay; format: cell-based; details: Iso-Sensitest broth, 0.098 = detection limit
# Outline: (§1)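 Read-out is optical density at λ=600 nm, taken every 20 minutes across a 16 h time course. Bacteria at ~5×10^5 CFU/mL in Iso-Sensitest broth are exposed to two-fold dilutions of compound (50 to 0.097 μM final) at 35±2° C.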
# [2] = system: K. pneumoniae (ATCC10031); experiment: as above; format: cell-based; details: Klebsiella pneumoniae, Iso-Sensitest broth, 0.098 = detection limit
# Outline: as §1
# [3] = system: S. aureus (ATCC29213); experiment: as above; format: cell-based; details: Staphylococcus aureus, Iso-Sensitest broth, 0.098 = detection limit
# Outline: as §1
# [4] = system: HepG2 cells (ATCC HB-8065); experiment: Cytotoxicity assay (HepG2, CellTiter-Blue cell viability); format: cell-based; details: HepG2 cells, 3 days treatment; "*": the detection limit
# Outline: (§2)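 HepG2 cells (1.2×10^4 per well) exposed to compounds for 3 days; viability then read by CellTiter-Blue fluorescence after 3 h at 37 °C. CC50 from four-parameter logistic fit.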
# [5] = Single dose PK study (SDPK) in female CD-1 mouse; format: in vivo; details: MOUSE IV, 1.0 mg/kg-Solution; for clearance: female, CD-1, plasma, read-out: CL total
# Description: Single Dose PK Study (SDPK) in Female CD-1 Mouse: The single dose PK in female CD-1 mouse was performed to assess compound's pharmacokinetic properties. One group of animals were dosed via bolus intravenous (IV) of the respective compound. Blood samples (approximately 30 μL) were collected via saphenous vein at 5 mins, 15 min, 30 min, 1 hr, 2 hr, 4 hr and 7 hr. For last time point (24 hr), samples were collected via cardiac puncture while the mouse was under anesthesia. Blood samples were placed into tubes containing EDTA-K2 anticoagulant (2 μL of 0.5M per tube) and centrifuged at 3000 rpm for 10 minutes at 4° C. within half an hour to separate plasma from the samples. Following centrifugation, plasma samples were stored in polypropylene tubes, quick frozen over dry ice and kept at −70±10° C. until LC/MS/MS analysis. The pharmacokinetic parameters were calculated using non-compartmental module of WinNonlin® Professional 6.4.
# [6] = system: multiple species and strains; experiment: Minimal inhibitory concentration (MIC) and MIC90 determination, broth microdilution (CLSI M07-A10); details: S9: P. aeruginosa ATCC BAA-2113
# Description: Minimal Inhibitory Concentration (MIC) and MIC90 Determination:
# The MIC of antibacterial compounds against multiple species and strains was determined using the broth microdilution method according to M07-A10 Clinical and Laboratory Standards Institute (CLSI) guidelines (CLSI (2015) Methods for dilution antimicrobial susceptibility tests for bacteria that grow aerobically; Approved Standard, Tenth Edition. CLSI Document M7-A10 (ISBN 1-56238-987-4). Wayne, Pa.: Clinical and Laboratory Standards Institute, 19087, USA.). In short, bacterial strain preparation was performed on D1 and D2. […] 5-10 well-isolated colonies of similar morphology were selected and re-streaked onto fresh agar plates using sterile loops and incubated for 20-24 hr at 35±2° C. Bacterial strains were subcultured two times to ensure fresh inoculums for MIC screening. […] Alternatively, 1-2 colonies were transferred into 500 μL of saline and OD600 was adjusted to ˜0.1 using an OD meter. Bacterial inoculum was diluted by 1:280 for Gram-positive strains and 1:400 for Gram-negative strains into corresponding medium broth (CAMHB, CAMHB+3% lysed horse blood, HTM) (e.g. 35.6 μL of inoculum into 10 mL of CAMHB or 25 μL of inoculum into 10 mL of CAMHB). […] Compound stock concentration=[(highest testing concentration)×100 μL/2 μL] (e.g. if the required highest testing concentration is 64 μg/mL in assay plates, stock concentration=64 μg/mL×100 μL/2 μL=3.2 mg/mL). […] of each well was transferred in a new MTP, which served as the test plate by subsequent inoculation. The bacterial suspension prepared above is dispensed at 98 μL/well within 15 minutes after preparation. Negative controls (lack of bacterial cells) and growth control wells (lack of compound) were included in all plates. MTPs were incubated for 18-24 hours at 35±2° C. in ambient air. The MIC was recorded and CFUs were calculated on Day 4. The assay plate was placed on the top of MIC reader, and the magnification mirror was adjusted to read each wells, recording growth status as raw data. Photo images of each assay plates were recorded using Q Count 530 (Spiral Biotech). The MIC value of each compound, expressed as […], was determined as the lowest concentration required for complete growth inhibition (no visible growth).
# [7] = Lyophilisation solubility assay (LYSA); format: physicochemical; details: phosphate buffer, pH 6.5, aqueous buffer, thermodynamic from solid, 0.05 M phosphate buffer, HPLC-UV
# Outline: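 Duplicate samples made from 10 mM DMSO stock. DMSO evaporated and the residue taken up in 0.05 M phosphate buffer, pH 6.5, stirred 1 h and shaken 2 h, then left overnight. Filtrate and its 1/10 dilution quantified by HPLC-UV.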
# [8] = Cytotoxicity assay (HepG2, CellTiter-Blue cell viability); format: cell-based; details: human; HepG2 cells, 3 days treatment; "*": the detection limit; read-out: CC50
# Outline: as §2
# [9] = Acinetobacter baumannii, ATCC17978, A. baumannii ATCC17978
Structure (SMILES),IC50 ([1]; A. baumannii ATCC17978) [µM],IC50 [2] [µM],IC50 [3] [µM],CC50 [4] [nM],AUC total [5] [ng·h/mL],clearance [5] [mL/min/kg],MIC S9 [6],"IC50 [1, 9] [µM]",solubility thermodynamic [7] [µg/mL],CC50 at 3 days [8] [nM]
CNc1cc(F)c(F)c2c1[nH]c1ncc(-c3cnc4c(c3)c(=O)c(C(=O)O)cn4C3CCNC3)c(N(C)C)c12 (centres unmarked) [Example 1.02],0.693,< 0.098,< 0.098,> 100000,291.0,58.8,3.335,–,–,–
CNc1cc(F)c(F)c2c1[nH]c1ncc(-c3cnc4c(c3)c(=O)c(C(=O)O)cn4C)c(N3CC[C@H]4CN(C)CC43)c12 (some centres unmarked) [Example 1.85],–,< 0.098,< 0.098,–,177.0,94.8,6.995,0.089,101,35200
CNc1cc(F)c(C#N)c2c1[nH]c1ncc(-c3cnc4c(c3)c(=O)c(C(=O)O)cn4C)c(N3CC[C@H]4CN(C)C[C@H]43)c12 [Example 1.298],–,–,–,–,274.0,62.7,17.016,–,–,–
"CNc1cc(F)c(F)c2c1[nH]c1ncc(-c3cnc4c(c3)c(=O)c(C(=O)O)cn4NC)c(N3CC[C@H]4CN(C)C[C@H]43)c12 [Example 3.01A, 6-[5,6-difluoro-8-(methylamino)-4-[(3aS,6aS)-5-methyl-2,3,3a,4,6,6a-hexahydropyrrolo[2,3-c]pyrrol-1-yl]-9H-pyrido[2,3-b]indol-3-yl]-1-(methylamino)-4-oxo-1,8-naphthyridine-3-carboxylic acid]",–,< 0.098,< 0.098,–,195.4,81.9,1.796,0.034,264,54100
CNc1cc(F)c(F)c2c1[nH]c1ncc(-c3cnc4c(c3)c(=O)c(C(=O)O)cn4C)c(N3CC[C@H]4CN(C)C[C@H]43)c12 [Example 3.03A],–,< 0.098,< 0.098,–,249.6,66.9,1.749,0.039,137,38400
CNc1cc(F)cc2c1[nH]c1ncc(-c3cnc4c(c3)c(=O)c(C(=O)O)cn4C)c(N3CC[C@H]4CN(C)C[C@H]43)c12 [Example 3.04A],–,< 0.098,< 0.098,–,241.6,68.9,6.77,0.035,485,49500
CNc1cc(F)cc2c1[nH]c1ncc(-c3cnc4c(c3)c(=O)c(C(=O)O)cn4NC)c(N3CC[C@H]4CN(C)C[C@H]43)c12 [Example 3.05A],–,< 0.098,< 0.098,–,356.4,50.5,6.957,0.055,535,54500
